# Reference: patent US20240342199A1, “COMBINATION THERAPIES TARGETING MITOCHONDRIA FOR CANCER THERAPY” (The Wistar Institute of Anatomy and Biology, priority 2014, published 2024)
# Entries after “also recorded” stand apart in the source; their conditions may differ.
# Experiments:
# [1] = test system: Akt2 (Ser474) in cytosol and mitochondria; assay: Phosphorylated Akt in cytosol and mitochondrial extracts by Western blotting; type: cell-based, Human; details: cytosol and mitochondrial extracts, 48 h
# Procedure: Subcellular and submitochondrial fractionation. Mitochondrial fractions were isolated using an ApoAlertTM cell fractionation kit (CLONTECH), as described. Submitochondrial fractions comprising outer membrane (OM), inner membrane (IM), inter-membrane space (IMS) and matrix were prepared as described.
# LN229 cells [2] = assay: Global metabolomics screening; type: cell-based, Human; details: 10 μM for 48 h
# Procedure: Metabolomics screen and Reverse Phase Protein Array (RPPA). Changes in expression of 301 individual metabolites in LN229 cells treated with PX-866 (10 μM for 48 h) were determined in a global metabolomics screening as described previously. For RPPA, PC3 or LN229 cells were treated with vehicle, PX-866 (10 μM) or the combination of PX-866 plus Gamitrinib (5 μM) for 24 h. Data in triplicate samples were normalized for protein loading, converted to linear values and then log2 transformed.
# Statistical analysis. Data were analyzed using the two-sided unpaired/tests using a GraphPad software package (Prism 4.0) for Windows. Data are expressed as mean±SEM of replicates of a representative experiment out of at least two independent determinations. A p value of ≤0.05 was considered as statistically significant. For RPPA screens, the False Discovery Rate (FDR) values were estimated using Benjamini-Hochberg correction for multiple testing and changes with FDR<20% of at least 1.2 fold were called statistically significant. […] However, biochemicals that were detected in all samples from one or more groups, but not in samples from other groups, were assumed to be near the lower limit of detection in the groups in which they were not detected. In this case, the lowest detected level of these biochemicals was imputed for samples in which that biochemical was not detected. […]
# Akt phosphorylation = Akt phosphorylation in tumor cell lines by Western blotting; type: cell-based, Human; details: high (10 μM) and low (0.8 μM) concentrations, within 24 hours
# LN229 or PC3 cells [3] = assay: Cell cycle, proliferation and viability after PI3K inhibition; type: cell-based, Human
# Procedure: (§1) Mitochondrial integrity and cell viability. LN229 or U251 cells were treated with vehicle (DMSO), PI3K inhibitors, BEZ (0.5 μM) or LY294002 (50 μM), alone or combination with Gamitrinib (0.5-5 μM, respectively) for 24 h, and analyzed for changes in mitochondrial membrane potential by JC-1 staining and multiparametric flow cytometry, as described. For cell viability, LN229, U87 or U251 cells treated with vehicle, PI3K inhibitors BEZ or LY294002, or, alternatively, transfected with control cDNA or Δ-p85 dominant negative PI3K mutant, alone or in combination with Gamitrinib, were examined by a 3 (4,5-dimethyl-thyazoyl-2-yl)2,5 diphenyltetrazolium bromide (MTT) colorimetric assay. Changes in cell viability in LN229 cells exposed to PX-866 (0-25 μM) were monitored by Trypan blue staining, or, alternatively, MTT. For apoptosis, LN229 cells (1×10^6) treated with vehicle, Gamitrinib or PI3K inhibitors (BEZ, LY294002), alone or in combination for 24 h, were labeled for annexin V plus propidium iodide (PI) (BD Biosciences), and analyzed by multiparametric flow cytometry (BD), as described. Alternatively, cytosolic fractions isolated from treated tumor cells were analyzed for released cytochrome c, by Western blotting. For analysis of colony-forming ability, PC3 or LN229 cells were treated with vehicle (Veh) or PX-866 (10 μM) and analyzed in a colony formation assay after 12 days. Colonies were stained with crystal violet. In some experiments, LN229 cells treated with PX-866 (0-25 μM) were analyzed for DNA content by PI staining and flow cytometry.
# GBM organotypic cultures = assay: Tumor kinome transcription (OpenArray real-time PCR) in GBM organotypic cultures; type: cell-based, Human
# Procedure: Organotypic cultures. Short-term organotypic cultures from the different patient samples were established as described previously. […]
# Bioinformatics analysis. Transcriptional changes in the human kinome following PI3K inhibition were analyzed using OpenArray real-time PCR amplification. […] Ct values from the experiment were exported from BioTrove OpenArray Real-Time qPCR Analysis Software v1.0.4. ΔΔCt value method was used to calculate fold changes between sample pairs with endogenous control Ct value calculated as average among 15 endogenous controls on the array: ALAS1, B2M, CASC3, G6PD, GAPDH, GUSB, HMBS, HPRT1, IPO8, POLR2A, PPIA, RPLP0, TFRC, UBE2D2, and YWHAZ. P-values for differential expression were calculated using fold changes of 15 endogenous controls as a null distribution.
# CypD = CypD level and Ser phosphorylation in reconstituted LN229 cells; type: cell-based, Human
# From the text: Mutant constructs were confirmed by DNA sequencing and transfected in CypD-depleted cells for reconstitution experiments. In some experiments, CypD depleted LN229 cells were transfected with WT or mutant CypD constructs and analyzed for bioenergetics (glucose utilization, oxygen consumption, ATP production) or cell viability (JC1 or Annexin V multiparametri staining, cytochrome c release) readouts.
# PC3 or LN229 cells = assay: Colony formation assay; type: cell-based, Human; details: 10 μM, 12 days, compared with control cultures
# Procedure: as §1, with “Colonies were stained with crystal violet. In some experiments, LN229 cells treated with PX-866 (0-25 μM) were analyzed for DNA content by PI staining and flow cytometry.” left out
# tumor cells = assay: Senescence markers (SA-β-Gal, PML nuclear bodies); type: cell-based; details: treated tumor cells
# LN229 or PC3 cells [4] = assay: Analysis of bioenergetics (ATP, glucose, lactate, oxygen consumption); type: cell-based, Human
# LN229 cells [5] = assay: High-throughput screening: cell viability (resazurin), compounds with DMSO or Gamitrinib; type: cell-based, Human; details: Gamitrinib 1 μM in combination
# Procedure: High-throughput screening and synergy experiments. Compounds for the molecular targeted cancer therapeutics were either purchased from SelleckChem or acquired under Material Transfer Agreement (MTA) with the Wistar Institute MTA. Compounds were suspended in DMSO. The purity and identity of the compounds was confirmed by LC/MS for a fraction of the compounds. Source plates with a 10 point dilution series (5-fold dilutions, ranging from 10-0.0001 μmol/L) were prepared for screening. […] Cell viability was determined by the addition of resazurin to a final concentration of 50 μM and incubation for 8 h. Fluorescence intensity (excitation, 560 nm, emission, 590 nm) was determined on an Envision Xcite Multilabel Reader (Perkin-Elmer), and the fractional growth inhibition was determined by normalizing assay wells to the aggregated average responses of positive control (10 μM doxorubicin) and negative control (0.2% DMSO) treatments (n=12).
# [6] = test system: Ser473-phosphorylated Akt (pAkt); assay: Ser473-phosphorylated Akt in patient-derived organotypic cultures; type: cell-based, Human; details: Gamitrinib added to PI3K inhibitor-treated tumor organoids
# Procedure: Organotypic cultures. Short-term organotypic cultures from the different patient samples were established as described previously. Briefly, precise thick tissue slices (300 μm) were obtained from each case by vibratome serial cutting (VT1200, Leica Microsystems, Milan, Italy), and cultured in six-well plates on organotypic inserts (Millicell PICM ORG, Merck Millipore) for up to 48 h in 1 ml of Ham-F12 complete medium supplemented with vehicle (DMSO, 2.5 μl), pan-PI3K inhibitor LY294002 (50 or 100 μM) or PX-886 (2.5, 5 or 10 μM), or mitochondrial-targeted small molecule Heat Shock Protein-90 (Hsp90) inhibitor, 10 Gamitrinib (GA mitochondrial matrix inhibitor, 10 or 25 μM), or the combination of PX-886 plus Gamitrinib (each agent used at 10 μM). At the end of the experiment, one tissue slice per condition was formalin-fixed and paraffin-embedded (FFPE), and processed for morphological and immunohistochemical analysis. An additional tissue slice collected at the end of the experiment was embedded in optimal cutting temperature, and snap-frozen for molecular or immunofluorescence studies.
# LN229 cells [7] = assay: Bliss independence analysis of Gamitrinib and kinase inhibitors; type: cell-based, Human; details: Gamitrinib with NVP-BEZ235, GDC-0941 or AZD6482, 7×7 matrix, 18 h
# Procedure: A synergistic anticancer activity of the combination of Gamitrinib and selected kinase inhibitors was further assessed by Bliss independence analysis. For these experiments, LN229 cells were treated with Gamitrinib (concentration range 2-0.008 μmol/L) and selected kinase inhibitors (concentration range 2-0.008 μmol/L) in a 7×7 matrix for 18 h at 37° C. Cell viability was measured by addition of resazurin, and the fractional growth inhibition under the various conditions tested was determined as described above. The Bliss expectation (E) for a combined response was calculated by the equation: E=(A+B)−(A×B) where A and B are the fractional growth inhibitions of drug A and B at a given concentration. […] Each synergy experiment was done two independent times, in duplicate.
# MAP kinase = details: concentration of 50 μM; cited from earlier work
# PI3 kinase = details: concentration of 50 μM; cited from earlier work
# PKC = details: concentration of 50 μM; cited from earlier work
# PI4 kinase = details: concentration of 50 μM; cited from earlier work
# c-Src = c-Src (Homo sapiens, UniProt P12931); details: concentration of 50 μM; cited from earlier work
# [8] = PX-866 (10 μM), AZD6482 (10 μM) or GDC0941 (2 μM) for 48 h
# c-Src, sequence (P12931 whole entry, species assumed): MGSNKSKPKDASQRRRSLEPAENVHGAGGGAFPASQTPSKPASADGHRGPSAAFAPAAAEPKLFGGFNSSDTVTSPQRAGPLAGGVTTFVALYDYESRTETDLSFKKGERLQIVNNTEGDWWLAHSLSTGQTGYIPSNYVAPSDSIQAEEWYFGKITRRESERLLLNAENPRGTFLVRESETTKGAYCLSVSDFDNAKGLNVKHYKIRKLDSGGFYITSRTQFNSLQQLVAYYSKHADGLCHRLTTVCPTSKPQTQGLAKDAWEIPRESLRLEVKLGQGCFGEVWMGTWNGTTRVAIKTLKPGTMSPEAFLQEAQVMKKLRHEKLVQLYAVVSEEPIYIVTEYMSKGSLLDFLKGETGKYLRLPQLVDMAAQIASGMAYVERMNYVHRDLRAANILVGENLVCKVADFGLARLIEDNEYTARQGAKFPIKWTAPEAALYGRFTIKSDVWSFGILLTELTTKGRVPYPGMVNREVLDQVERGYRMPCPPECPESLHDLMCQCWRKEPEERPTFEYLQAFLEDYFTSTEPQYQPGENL
molecule,measurement,setting,value
C=CCN(/C=C1/C(=O)O[C@H](COC)[C@@]2(C)C1=C(O)C(=O)C1=C2[C@H](OC(C)=O)C[C@]2(C)C(=O)CC[C@@H]12)CC=C [PX-866],phosphorylation of Akt2 on Ser474,[1],robust and concentration-dependent isoform-specific phosphorylation of Akt2 on Ser474
same,metabolome profile,LN229 cells [2],extensive metabolic reprogramming
same,Akt phosphorylation,Akt phosphorylation,induced Akt phosphorylation
same,cell cycle (DNA content),LN229 or PC3 cells [3]; 10 μM,arrested in the G1 phase of the cell cycle
same,proliferation (direct cell counting),LN229 or PC3 cells [3]; 10 μM,reduced proliferation
same,"viability (Trypan blue, MTT)","LN229 or PC3 cells [3]; LN229 cells, 48 h",without significant decrease in viability
same,expression of kinome genes,"GBM organotypic cultures; PX-866 (10 μM) for 48 h, GBM organotypic cultures",increased the expression of genes associated with growth factor signaling
same,phosphorylated Ser (pSer) reactivity of WT CypD,CypD; immunoprecipitated from reconstituted LN229 cells,increased this response; also recorded: increased reactivity with an antibody to pSer
same,levels of endogenous or overexpressed CypD,"CypD; reconstituted cells, 10 μM for 48 h",did not affect
same,long-term colony forming ability,PC3 or LN229 cells,unaffected
same,PML nuclear body number,tumor cells,higher PML nuclear body number
same,senescence-associated β-galactosidase staining (SA-β-Gal),tumor cells,increased β-galactosidase staining
same,oxygen consumption,LN229 or PC3 cells [4]; 10 μM for 48 h,suppression of oxygen consumption
same,ATP production,LN229 or PC3 cells [4]; [8],reduced ATP production
same,glucose utilization,LN229 or PC3 cells [4]; [8],less glucose utilization
same,lactate production,LN229 or PC3 cells [4]; [8],less
Gamitrinib,effect on anticancer activity of PI3K/Akt/MTOR pathway antagonists,LN229 cells [5],potently enhanced the anticancer activity
same,reactivation of Akt induced by PI3K inhibition,[6],prevented the reactivation of Akt
same,transcriptional changes induced by PI3K inhibition,GBM organotypic cultures; Gamitrinib added to PX-866-treated tumor organoids,largely reversed the transcriptional changes induced by PI3K inhibition
same,"tumor cell proliferation, Bliss independence analysis",LN229 cells [7],synergistically inhibited tumor cell proliferation
"O=c1cc(N2CCOCC2)oc2c(-c3ccccc3)cccc12 [LY294002, 2-(4-morpholinyl)-8-phenyl-4H-1-benzopyran-4-one]",inhibition of MAP kinase,MAP kinase,did not inhibit
same,PI3 kinase activity,PI3 kinase,specifically abolished PI3 kinase activity
same,inhibition of PKC,PKC,did not inhibit
same,inhibition of PI4 kinase,PI4 kinase,did not inhibit
same,inhibition of c-Src,c-Src,did not inhibit
